From patent US6902881B2, “Compounds and methods for regulating cell differentiation” (priority 2000, dated 2005)
“And” between values parts separate entries of the source, which are not always exact repeats. Identical values can stand only once.

What was measured:
[1] = system: control fertilized oocytes unexposed to UV light; test: Development of control embryos unexposed to UV light incubated with the compounds (dysmorphogen test); details: control fertilized oocytes unexposed to UV light incubated with the compound
Method: Several hundred spawned eggs were fertilized in vitro and incubated at 16 to 18° C. […] The vegetal surfaces of some of these embryos were irradiated with one or the other sources of UV light within 10 min of fertilization for 20-30 min. […] The embryos were not disturbed, touched or tipped from the moment of fertilization, during UV irradiation or for the duration of development. […] A score of 5 defines a normal dorsal axis, 4 a microcephalic, 3 a cyclopic, 2 an anoptic, 1 an acephalic and 0 an adorsal embryo.
The biological activities of biliverdin and its derivatives were tested by adding each of them to the incubation solution of embryos after the termination of the UV light exposure to either 254 or 366 nm UV light and at selected time periods between T ƒfm=0.4-2.5. Final concentrations of biliverdin ranged from 0.05 to 5 μM in less than 1% ethanol. […] The extent of dorsal axis formation was analyzed by the morphological criteria described above.
Stage 1 embryos were exposed to UV-light source emitting at 366 nm (Mineralight UVSL-58, Ultraviolet Products, Inc., San Gabriel, Calif.) as described and then incubated in the presence of pure candidate DCD or commercially available biliverdin (Sigma-Aldrich, St. Louis, Mo.) at final concentrations from 0.05 to 1.2 μM in less than 1% ethanol. The concentrations were calculated using a molar extinction coefficient of 51,000. […]

[2] = system: thyroid cancer (Th) cells; test: Proliferation of thyroid carcinoma cells; type: cell-based, human
[3] = system: alkaline phosphatase activity in HT 29 cells; test: Cellular alkaline phosphatase activity of HT 29 cells; type: cell-based, human; details: HT 29, by day 20 of incubation
Method: Expression of differentiation markers. Carcinoembryogenic antigen in cell supernatants collected each three days was assayed by standard ELISA determinations using an IMX assay for quantitative measurement of the antigen. Cellular triacyl glycerol content was measured spectrophotometrically by enzymatic hydrolysis and analysis of the amount of glycerol released using a standard assay, Triglyceride (INT) 10 (Sigma Diagnostics). […] The fluorescence is detected at 450 nm with an excitation of 365 nm, using a Jobin Ivon-Spex Fluoro Max-2 fluorimeter. The alkaline phosphatase activity detected was expressed in units of μmol/mg protein/min. Alkaline phosphatase activity was assayed at the same periods as above but with different sets of cells. Treated and control cells were detached with trypsin and counted. One half of the cells were used to maintain the culture while the other half were used to measure alkaline phosphatase activity. […] Absorbance was detected at […] on a Varian Cary UV-Visible Spectrophotometer. The absorbance was compared against a standard curve created with bovine serum albumin from 2.5 to 25 μg/ml. […] The fluorescence generated is detected at 450 nm with an excitation of 365 nm, using a Jobin Ivon-Spex Fluoro Max-2 fluorimeter. […] The alkaline phosphatase actively detected was expressed in units of μmol product/mg protein/min.

[4] = system: HT29 colon cancer cells; test: Cellular proliferation and viability of HT29 colon cancer cells; type: cell-based, human
Method: Cell Culture Conditions. Human HT 29 colon cancer cells were purchased from the American Type Culture Collection. Cells were maintained in Dulbecco's Modified Eagle's Medium (DME) supplemented with 5% heat-inactivated fetal bovine serum, 2 mM glutamine, and antibiotics (DME/5%). All cell lines were incubated in a humidified 5% CO2/air environment. They were maintained at 37° C. in 5% CO2 covered in aluminum foil to prevent exposure to the light. A total of 1×10^6 cells were incubated per flask and allowed to attach overnight. Media was changed every third day. Cell counts were performed on a Coulter Counter following detachment of cells by standard trypsinization procedures. […] The period of exposure was followed by incubation in the absence of biliverdine. Cell numbers were monitored until proliferation resumed. The production of CEA and alkaline phosphatase was measured as described below.
The HT29 colon cancer cells were incubated with different concentrations of biliverdine and their response studied to identify the concentration ranges required to elicit a biological and/or a toxicological response (Table III).

[5] = system: Colon Adenocarcinoma (HT 29) cells; test: Cellular triacyl glycerol (TAG) content, colon adenocarcinoma; type: cell-based, human; details: biliverdin 4 × 10^−7 M
Method: Expression of differentiation markers. Carcinoembryogenic antigen in cell supernatants collected each three days was assayed by standard ELISA determinations using an IMX assay for quantitative measurement of the antigen. Cellular triacyl glycerol content was measured spectrophotometrically by enzymatic hydrolysis and analysis of the amount of glycerol released using a standard assay, Triglyceride (INT) 10 (Sigma Diagnostics). Cellular alkaline phosphatase activity was determined by measuring the fluorescence change induced by the hydrolysis of 4-methylumbelliferylphosphate. The fluorescence is detected at 450 nm with an excitation of 365 nm, using a Jobin Ivon-Spex Fluoro Max-2 fluorimeter. The alkaline phosphatase activity detected was expressed in units of μmol/mg protein/min.

[6] = system: T-lymphoblast (LT) cells; test: Proliferation of T-lymphoblast cells; type: cell-based, mouse

- average DAI of control embryos [1]: 5
Compound: C=CC1=C(C)/C(=C/C2=NC(=C\c3[nH]c(/C=C4\NC(=O)C(C)=C4C=C)c(C)c3CCC(=O)O)/C(CCC(=O)O)=C2C)NC1=O [Biliverdin, biliverdin IXα]
- division slower than control [2]: 4.7 times
- time until proliferation ceases [2]: six days and 6 days
- recovery of proliferative rate ([2]; 12-day observation period): did not recover its proliferative rate at all
- peak increase of alkaline phosphatase activity [3]: fifteen-fold
- amount that does not affect cellular survival or proliferation ([4]; HT29): lower than 10^−7 M
- concentration that causes apoptosis ([4]; HT29): ≥ 1000 nM
- concentration with no effect on survival or proliferation ([4]; HT29): below 0.1 μM
- Effect on cellular proliferation and viability ([4]; HT29, 0.01 μM): None
- Effect on cellular proliferation and viability ([4]; HT29, 0.1 μM): Proliferative Arrest
- Effect on cellular proliferation and viability ([4]; HT29, 0.30 μM): Proliferative Arrest
- Effect on cellular proliferation and viability ([4]; HT29, 0.40 μM): Proliferative Arrest
- Effect on cellular proliferation and viability ([4]; HT29, 1.00 μM): Apoptosis
- effect on proliferation ([4]; HT29, 5 μM, associated decrease of cell numbers in first three days): arrests proliferation
- time until proliferative arrest ([4]; HT29, 0.1 to 0.4 μM): ≤ 72 h
- doubling time during exposure ([4]; HT29, 4×10^−7 M, next 35 days after arrest): 103 h
- time of exposure until proliferation is arrested ([4]; HT29, FIG. 9): ≤ 1 days
- proliferation rate after resumption, fold less than control ([4]; HT29, after end of exposure): 2-3 fold
- reduction of three-day cell number increase compared to controls ([4]; HT29, treated and released cells): five-fold reduction
- increase of cell number in a three-day period ([4]; HT29, treated and released cells, control about 15 times): 3.4 times
- proliferation rate after resumption, relative to control ([4]; HT29, treatment discontinued day 30, resumption twelve days later): 43%
- doubling time after removal of biliverdin ([4]; HT29, twelve days after removal, control 18 hrs): 41 h
- % Change of TAG [5]: 154%
- TAG ([5]; control 68): 105 µg/10^6 cells
- time until proliferation ceases [6]: within one day
- time until cell division resumes at nearly the control rate ([6]; still exposed): 3 to 4 days
